Source: patent EP0726263A2, “Herbicidal (1,3,4)oxadiazoles and thiadiazoles” (American Cyanamid Company, priority 1995, dated 1996)

Tests used:
Assay type in all cases: in vivo
Galium aparine [1] = assay: Herbicidal activity, postemergence test; settings: post; sprayed onto seedling plants, 800 g of active material per hectare; evaluated 2 weeks after treatment
Method: (§1) To evaluate their herbicidal activity, compounds according to the invention are tested using a representative range of plants: TRZAW Triticum aestivum HORVW Hordeum vulgare ZEAMX Zea mays GOSHI Gossypium hirsutum HELAN Helianthus annuus GLYMA Glycine max ALOMY Alopecurus myosuroides SETVI Setaria viridis ECHCG Echinochloa crus-galli GALAP Galium aparine STEME Stellaria media VERPE Veronica persica VIOAR Viola arvensis IPOHE Ipomoea hederacea LAMPU Lamium purpureum PAPRH Papaver rhoeas MATIN Matricaria inodora AMARE Amaranthus retroflexus ABUTH Abutilon theophrasti AMBEL Ambrosia artemisifolia CHEAL Chenopodium album
(§2) The tests fall into two categories, preemergence and postemergence. The preemergence tests involve spraying a liquid formulation of the compound onto the soil in which the seeds have recently been sown. The postemergence tests involve spraying a liquid formulation of the compound onto seedling plants.
(§3) The soil used in the tests is a prepared horticultural loam.
(§4) The formulations used in the tests are prepared from solutions of the test compounds in acetone containing 0.4% by weight of an alkylphenol/ethylene oxide condensate available under the trade mark TRITON X-155. These acetone solutions are diluted with water and the resulting formulations applied at dosage levels corresponding to 800 g of active material per hectare in a volume equivalent to 900 litres per hectare.
(§5) In the preemergence tests untreated sown soil and in the postemergence tests untreated soil bearing seedling plants are used as controls.
(§6) Results of herbicide evaluation are expressed on a rating scale (0-9). The scale is based upon a visual observation of plant stand, vigor, malformation, size, chlorosis, and general plant appearance as compared to a control. Preemergence and postemergence treatments are evaluated at 3 and 2 weeks after treatment, respectively.

Alopecurus myosuroides [2] = assay: Herbicidal activity, postemergence test; settings: post; sprayed onto seedling plants, 800 g of active material per hectare; evaluated 2 weeks after treatment
Method: as §1, §2, §3, §4, §5, §6

Veronica persica [3] = assay: Herbicidal activity, postemergence test; settings: post; sprayed onto seedling plants, 800 g of active material per hectare; evaluated 2 weeks after treatment
Method: as §1, §2, §3, §4, §5, §6

Ipomoea hederacea [4] = assay: Herbicidal activity, postemergence test; settings: post; sprayed onto seedling plants, 800 g of active material per hectare; evaluated 2 weeks after treatment
Method: as §1, §2, §3, §4, §5, §6

Triticum aestivum [5] = assay: Herbicidal activity, postemergence test; settings: post; sprayed onto seedling plants, 800 g of active material per hectare; evaluated 2 weeks after treatment
Method: as §1, §2, §3, §4, §5, §6

Zea mays [6] = assay: Herbicidal activity, postemergence test; settings: post; sprayed onto seedling plants, 800 g of active material per hectare; evaluated 2 weeks after treatment
Method: as §1, §2, §3, §4, §5, §6

Ambrosia artemisifolia [7] = assay: Herbicidal activity, postemergence test; settings: post; sprayed onto seedling plants, 800 g of active material per hectare; evaluated 2 weeks after treatment
Method: as §1, §2, §3, §4, §5, §6

Chenopodium album [8] = assay: Herbicidal activity, postemergence test; settings: post; sprayed onto seedling plants, 800 g of active material per hectare; evaluated 2 weeks after treatment
Method: as §1, §2, §3, §4, §5, §6

Glycine max [9] = assay: Herbicidal activity, postemergence test; settings: post; sprayed onto seedling plants, 800 g of active material per hectare; evaluated 2 weeks after treatment
Method: as §1, §2, §3, §4, §5, §6

Setaria viridis [10] = assay: Herbicidal activity, postemergence test; settings: post; sprayed onto seedling plants, 800 g of active material per hectare; evaluated 2 weeks after treatment
Method: as §1, §2, §3, §4, §5, §6

Amaranthus retroflexus [11] = assay: Herbicidal activity, postemergence test; settings: post; sprayed onto seedling plants, 800 g of active material per hectare; evaluated 2 weeks after treatment
Method: as §1, §2, §3, §4, §5, §6

Matricaria inodora [12] = assay: Herbicidal activity, postemergence test; settings: post; sprayed onto seedling plants, 800 g of active material per hectare; evaluated 2 weeks after treatment
Method: as §1, §2, §3, §4, §5, §6

Lamium purpureum [13] = assay: Herbicidal activity, postemergence test; settings: post; sprayed onto seedling plants, 800 g of active material per hectare; evaluated 2 weeks after treatment
Method: as §1, §2, §3, §4, §5, §6

Hordeum vulgare [14] = assay: Herbicidal activity, postemergence test; settings: post; sprayed onto seedling plants, 800 g of active material per hectare; evaluated 2 weeks after treatment
Method: as §1, §2, §3, §4, §5, §6

Stellaria media [15] = assay: Herbicidal activity, postemergence test; settings: post; sprayed onto seedling plants, 800 g of active material per hectare; evaluated 2 weeks after treatment
Method: as §1, §2, §3, §4, §5, §6

Gossypium hirsutum [16] = assay: Herbicidal activity, postemergence test; settings: post; sprayed onto seedling plants, 800 g of active material per hectare; evaluated 2 weeks after treatment
Method: as §1, §2, §3, §4, §5, §6

Abutilon theophrasti [17] = assay: Herbicidal activity, postemergence test; settings: post; sprayed onto seedling plants, 800 g of active material per hectare; evaluated 2 weeks after treatment
Method: as §1, §2, §3, §4, §5, §6

Papaver rhoeas [18] = assay: Herbicidal activity, postemergence test; settings: post; sprayed onto seedling plants, 800 g of active material per hectare; evaluated 2 weeks after treatment
Method: as §1, §2, §3, §4, §5, §6

Galium aparine [19] = assay: Herbicidal activity, preemergence test; settings: pre; sprayed onto soil, 800 g of active material per hectare; evaluated 3 weeks after treatment
Method: as §1, §2, §3, §4, §5, §6

Alopecurus myosuroides [20] = assay: Herbicidal activity, preemergence test; settings: pre; sprayed onto soil, 800 g of active material per hectare; evaluated 3 weeks after treatment
Method: as §1, §2, §3, §4, §5, §6

Veronica persica [21] = assay: Herbicidal activity, preemergence test; settings: pre; sprayed onto soil, 800 g of active material per hectare; evaluated 3 weeks after treatment
Method: as §1, §2, §3, §4, §5, §6

Ipomoea hederacea [22] = assay: Herbicidal activity, preemergence test; settings: pre; sprayed onto soil, 800 g of active material per hectare; evaluated 3 weeks after treatment
Method: as §1, §2, §3, §4, §5, §6

Triticum aestivum [23] = assay: Herbicidal activity, preemergence test; settings: pre; sprayed onto soil, 800 g of active material per hectare; evaluated 3 weeks after treatment
Method: as §1, §2, §3, §4, §5, §6

Zea mays [24] = assay: Herbicidal activity, preemergence test; settings: pre; sprayed onto soil, 800 g of active material per hectare; evaluated 3 weeks after treatment
Method: as §1, §2, §3, §4, §5, §6

Ambrosia artemisifolia [25] = assay: Herbicidal activity, preemergence test; settings: pre; sprayed onto soil, 800 g of active material per hectare; evaluated 3 weeks after treatment
Method: as §1, §2, §3, §4, §5, §6

Chenopodium album [26] = assay: Herbicidal activity, preemergence test; settings: pre; sprayed onto soil, 800 g of active material per hectare; evaluated 3 weeks after treatment
Method: as §1, §2, §3, §4, §5, §6

Glycine max [27] = assay: Herbicidal activity, preemergence test; settings: pre; sprayed onto soil, 800 g of active material per hectare; evaluated 3 weeks after treatment
Method: as §1, §2, §3, §4, §5, §6

Setaria viridis [28] = assay: Herbicidal activity, preemergence test; settings: pre; sprayed onto soil, 800 g of active material per hectare; evaluated 3 weeks after treatment
Method: as §1, §2, §3, §4, §5, §6

Amaranthus retroflexus [29] = assay: Herbicidal activity, preemergence test; settings: pre; sprayed onto soil, 800 g of active material per hectare; evaluated 3 weeks after treatment
Method: as §1, §2, §3, §4, §5, §6

Matricaria inodora [30] = assay: Herbicidal activity, preemergence test; settings: pre; sprayed onto soil, 800 g of active material per hectare; evaluated 3 weeks after treatment
Method: as §1, §2, §3, §4, §5, §6

Lamium purpureum [31] = assay: Herbicidal activity, preemergence test; settings: pre; sprayed onto soil, 800 g of active material per hectare; evaluated 3 weeks after treatment
Method: as §1, §2, §3, §4, §5, §6

Hordeum vulgare [32] = assay: Herbicidal activity, preemergence test; settings: pre; sprayed onto soil, 800 g of active material per hectare; evaluated 3 weeks after treatment
Method: as §1, §2, §3, §4, §5, §6

Stellaria media [33] = assay: Herbicidal activity, preemergence test; settings: pre; sprayed onto soil, 800 g of active material per hectare; evaluated 3 weeks after treatment
Method: as §1, §2, §3, §4, §5, §6

Gossypium hirsutum [34] = assay: Herbicidal activity, preemergence test; settings: pre; sprayed onto soil, 800 g of active material per hectare; evaluated 3 weeks after treatment
Method: as §1, §2, §3, §4, §5, §6

Abutilon theophrasti [35] = assay: Herbicidal activity, preemergence test; settings: pre; sprayed onto soil, 800 g of active material per hectare; evaluated 3 weeks after treatment
Method: as §1, §2, §3, §4, §5, §6

Papaver rhoeas [36] = assay: Herbicidal activity, preemergence test; settings: pre; sprayed onto soil, 800 g of active material per hectare; evaluated 3 weeks after treatment
Method: as §1, §2, §3, §4, §5, §6

| SMILES | GALAP control rating (0-9) (Galium aparine [1]) | ALOMY control rating (0-9) (Alopecurus myosuroides [2]) | VERPE control rating (0-9) (Veronica persica [3]) | IPOHE control rating (0-9) (Ipomoea hederacea [4]) | TRZAW control rating (0-9) (Triticum aestivum [5]) | ZEAMX control rating (0-9) (Zea mays [6]) | AMBEL control rating (0-9) (Ambrosia artemisifolia [7]) | CHEAL control rating (0-9) (Chenopodium album [8]) | GLXMA control rating (0-9) (Glycine max [9]) | SETVI control rating (0-9) (Setaria viridis [10]) | AMARE control rating (0-9) (Amaranthus retroflexus [11]) | MATIN control rating (0-9) (Matricaria inodora [12]) | LAMPU control rating (0-9) (Lamium purpureum [13]) | HORVW control rating (0-9) (Hordeum vulgare [14]) | STEME control rating (0-9) (Stellaria media [15]) | GOSHI control rating (0-9) (Gossypium hirsutum [16]) | ABUTH control rating (0-9) (Abutilon theophrasti [17]) | PAPRH control rating (0-9) (Papaver rhoeas [18]) | GALAP control rating (0-9) (Galium aparine [19]) | ALOMY control rating (0-9) (Alopecurus myosuroides [20]) | also measured |
| --- | --- | --- | --- | --- | --- | --- | --- | --- | --- | --- | --- | --- | --- | --- | --- | --- | --- | --- | --- | --- | --- |
| C[C@H](NC(=O)c1nnc(C=Cc2ccccc2)o1)c1ccccc1 [Example 17] | 2 (slight effect) | 0 (no effect) | 3 (moderate effect) | 1 (trace effect) | 0 (no effect) | 1 (trace effect) | 0 (no effect) | 5 (definite injury) | 0 (no effect) | 0 (no effect) | 4 (injury) | 0 (no effect) | 6 (herbicidal effect) | 0 (no effect) | 0 (no effect) | 3 (moderate effect) | 1 (trace effect) | 5 (definite injury) | 0 (no effect) | 0 (no effect) | VERPE control rating (0-9) (Veronica persica [21]): 3 (moderate effect); IPOHE control rating (0-9) (Ipomoea hederacea [22]): 0 (no effect); TRZAW control rating (0-9) (Triticum aestivum [23]): 0 (no effect); ZEAMX control rating (0-9) (Zea mays [24]): 0 (no effect); AMBEL control rating (0-9) (Ambrosia artemisifolia [25]): 0 (no effect); CHEAL control rating (0-9) (Chenopodium album [26]): 0 (no effect); GLXMA control rating (0-9) (Glycine max [27]): 0 (no effect); SETVI control rating (0-9) (Setaria viridis [28]): 0 (no effect); AMARE control rating (0-9) (Amaranthus retroflexus [29]): 0 (no effect); MATIN control rating (0-9) (Matricaria inodora [30]): 0 (no effect); LAMPU control rating (0-9) (Lamium purpureum [31]): 0 (no effect); HORVW control rating (0-9) (Hordeum vulgare [32]): 0 (no effect); STEME control rating (0-9) (Stellaria media [33]): 0 (no effect); GOSHI control rating (0-9) (Gossypium hirsutum [34]): 9 (complete kill); ABUTH control rating (0-9) (Abutilon theophrasti [35]): 0 (no effect); PAPRH control rating (0-9) (Papaver rhoeas [36]): 5 (definite injury) |
| COc1ccc(-c2nnc(C(=O)N[C@@H](C)c3ccccc3)o2)cc1 [Example 19] | 5 (definite injury) | 3 (moderate effect) | 9 (complete kill) | 6 (herbicidal effect) | 2 (slight effect) | 3 (moderate effect) | 7 (good herbicidal effect) | 8 (approaching complete kill) | 4 (injury) | 9 (complete kill) | 8 (approaching complete kill) | 6 (herbicidal effect) | 8 (approaching complete kill) | 3 (moderate effect) | 8 (approaching complete kill) | 9 (complete kill) | 9 (complete kill) | 7 (good herbicidal effect) | 0 (no effect) | 0 (no effect) | VERPE control rating (0-9) (Veronica persica [21]): 9 (complete kill); IPOHE control rating (0-9) (Ipomoea hederacea [22]): 0 (no effect); TRZAW control rating (0-9) (Triticum aestivum [23]): 0 (no effect); ZEAMX control rating (0-9) (Zea mays [24]): 0 (no effect); AMBEL control rating (0-9) (Ambrosia artemisifolia [25]): 0 (no effect); CHEAL control rating (0-9) (Chenopodium album [26]): 9 (complete kill); GLXMA control rating (0-9) (Glycine max [27]): 0 (no effect); SETVI control rating (0-9) (Setaria viridis [28]): 7 (good herbicidal effect); AMARE control rating (0-9) (Amaranthus retroflexus [29]): 9 (complete kill); MATIN control rating (0-9) (Matricaria inodora [30]): 7 (good herbicidal effect); LAMPU control rating (0-9) (Lamium purpureum [31]): 8 (approaching complete kill); HORVW control rating (0-9) (Hordeum vulgare [32]): 0 (no effect); STEME control rating (0-9) (Stellaria media [33]): 6 (herbicidal effect); GOSHI control rating (0-9) (Gossypium hirsutum [34]): 0 (no effect); ABUTH control rating (0-9) (Abutilon theophrasti [35]): 1 (trace effect); PAPRH control rating (0-9) (Papaver rhoeas [36]): 9 (complete kill) |
